tested on: HCV replication; assay: HCV replicon assay (luciferase) in ET (Huh-lucubineo-ET) cell line; type: cell-based; details: Hepatitis C virus, tested at 5 μM; ET replicon cells; luciferase activity measured 48-72 hours later; relative to no compound control
Summary of the method: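 Huh-lucubineo-ET cells stably carry a subgenomic replicon with a firefly luciferase–ubiquitin–neo fusion and adaptive NS3-5B mutations; they were seeded 24 h before compound addition (0.1 nM–50 μM, 0.5% DMSO). Luciferase was read 48–72 h later as % inhibition versus no-compound control, with parallel WST-1 cytotoxicity. EC50 and TC50 came from 10-point 2-fold dilutions fitted to a Hill equation.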

| SMILES | inhibition at 5 µM [%] |
| --- | --- |
| O=C(Nc1ccccc1)[C@@H]1CSC(c2cccnc2)N1C(=O)OCc1ccccc1 (stereo partly shown) [Compound 7018, 4-Phenylcarbamoyl-2-pyridin-3-yl-thiazolidine-3-carboxylic acid benzyl ester] | 47.6 |
| CC(C)(C)NC(=O)c1ccc(-c2csc(NC(=O)[C@@H]3CSC(c4ccncc4)N3C(=O)OCc3ccccc3)n2)cc1 (stereo partly shown) [Compound 7041, 4-[4-(4-tert-Butyl-carbamoyl-phenyl)-thiazol-2-ylcarbamoyl]-2-pyridin-4-yl-thiazolidine-3-carboxylic acid benzyl ester] | 100 |
| O=C(Nc1cccnc1)c1ccc(-c2csc(NC(=O)[C@@H]3COC4(CCOCC4)N3C(=O)OCc3ccccc3)n2)cc1 [Compound 7140, 3-{4-[4-(Pyridin-3-ylcarbamoyl)-phenyl]-thiazol-2-ylcarbamoyl}-1,8-dioxa-4-aza-spiro[4.5]decane-4-carboxylic acid benzyl ester] | 99.9 |
| O=C(NC1CC1)c1ccc(-c2csc(NC(=O)[C@@H]3CSC4(CCCCC4)N3C(=O)OCc3ccccc3)n2)cc1 [Compound 7093, 3-[4-(4-Cyclopropylcarbamoyl-phenyl)-thiazol-2-ylcarbamoyl]-1-thia-4-aza-spiro[4.5]decane-4-carboxylic acid benzyl ester] | 100 |
| O=C(NC1CC1)c1ccc(-c2csc(NC(=O)[C@@H]3CSC(c4ccc(CN5CCOCC5)cc4)N3C(=O)OCc3ccccc3)n2)cc1 (stereo partly shown) [Compound 7087, 4-[4-(4-Cyclopropylcarbamoyl-phenyl)-thiazol-2-ylcarbamoyl]-2-(4-morpholin-4-ylmethyl-phenyl)-thiazolidine-3-carboxylic acid benzyl ester] | 99.6 |
| COc1cccc(C2SC[C@@H](C(=O)Nc3nc(-c4ccc(C(=O)NC5CC5)cc4)cs3)N2C(=O)OCc2ccccc2)c1 (mixture of isomers) [Compound 7016, (R)-4-[4-(4-Cyclopropylcarbamoyl-phenyl)-thiazol-2-ylcarbamoyl]-2-(3-methoxy-phenyl)-thiazolidine-3-carboxylic acid benzyl ester] | 98.5 |
| N#Cc1cccc(C2SC[C@@H](C(=O)Nc3nc(-c4ccc(C(=O)NC5CC5)cc4)cs3)N2C(=O)OCc2ccccc2)c1 (mixture of isomers) [Compound 7033, (R)-2-(3-Cyano-phenyl)-4-[4-(4-cyclopropylcarbamoyl-phenyl)-thiazol-2-ylcarbamoyl]-thiazolidine-3-carboxylic acid benzyl ester] | 100 |
| O=C(NC1CC1)c1ccc(-c2csc(NC(=O)[C@@H]3CSC(c4cncs4)N3C(=O)OCc3ccccc3)n2)cc1 (mixture of isomers) [Compound 7015, (R)-4-[4-(4-Cyclopropylcarbamoyl-phenyl)-thiazol-2-ylcarbamoyl]-4,5-dihydro-[2,5′]bithiazolyl-3-carboxylic acid benzyl ester] | 100 |
| O=C(O)c1cccc(C2SC[C@@H](C(=O)Nc3nc(-c4ccc(C(=O)NC5CC5)cc4)cs3)N2C(=O)OCc2ccccc2)c1 (mixture of isomers) [Compound 7034, (R)-2-(3-Carboxy-phenyl)-4-[4-(4-cyclopropylcarbamoyl-phenyl)-thiazol-2-ylcarbamoyl]-thiazolidine-3-carboxylic acid benzyl ester] | 98.7 |
| O=C(NC1CC1)c1ccc(-c2csc(NC(=O)[C@@H]3CSC(C4CCOCC4)N3C(=O)CC3CC3)n2)cc1 (stereo partly shown) [Compound 7104, 3-(2-Cyclopropyl-acetyl)-2-(tetrahydropyran-4-yl)-thiazolidine-4-carboxylic acid [4-(4-cyclopropylcarbamoyl-phenyl)-thiazol-2-yl]-amide] | 100 |
| O=C(NC1CC1)c1ccc(-c2csc(NC(=O)[C@@H]3CSC(c4cnco4)N3C(=O)OCc3ccccc3)n2)cc1 (mixture of isomers) [Compound 7036, (R)-4-[4-(4-Cyclopropylcarbamoyl-phenyl)-thiazol-2-ylcarbamoyl]-2-oxazol-5-yl-thiazolidine-3-carboxylic acid benzyl ester] | 99.8 |
| COc1ccc(CNC(=O)Cc2cccc(NC(=O)[C@@H]3CSC(c4ccncc4)N3C(=O)OCc3ccccc3)c2)cc1 (stereo partly shown) [Compound 7128, 4-{3-[(4-Methoxy-benzylcarbamoyl)-methyl]-phenylcarbamoyl}-2-pyridin-4-yl-thiazolidine-3-carboxylic acid benzyl ester] | 97.5 |
| O=C(NC1CC1)c1ccc(NC(=O)[C@@H]2CSC(c3ccncc3)N2C(=O)OCc2ccccc2)cc1 (stereo in doubt) [Compound 7066, 4-(4-Cyclopropylcarbamoyl-phenylcarbamoyl)-2-pyridin-4-yl-thiazolidine-3-carboxylic acid benzyl ester] | 6.9 |
| O=C(Nc1nc(-c2ccccc2)cs1)[C@@H]1Cc2ccccc2N1C(=O)OCc1ccccc1 [Compound 7023, (S)-2-(4-Phenyl-thiazol-2-ylcarbamoyl)-2,3-dihydro-indole-1-carboxylic acid benzyl ester] | 78.5 |
| O=C(NC1CC1)c1ccc(-c2csc(NC(=O)[C@@H]3CSC(c4ccncc4F)N3C(=O)OCc3ccccc3)n2)cc1 (mixture of isomers) [Compound 7008, (R)-4-[4-(4-Cyclopropylcarbamoyl-phenyl)-thiazol-2-ylcarbamoyl]-2-(3-fluoro-pyridin-4-yl)-thiazolidine-3-carboxylic acid benzyl ester] | 100 |
| O=C(NC1CC1)c1ccc(-c2csc(NC(=O)[C@@H]3CSC(C4CCOC4)N3C(=O)OCc3ccccc3)n2)cc1 (stereo partly shown) [Compound 7122, 4-[4-(4-Cyclopropylcarbamoyl-phenyl)-thiazol-2-ylcarbamoyl]-2-(tetrahydro-furan-3-yl)-thiazolidine-3-carboxylic acid benzyl ester] | 100 |
| O=C(NCc1ccccc1)c1ccc(NC(=O)[C@@H]2CSC(c3ccncc3)N2C(=O)OCc2ccccc2)cc1 (stereo partly shown) [Compound 7075, 4-(4-Benzylcarbamoyl-phenylcarbamoyl)-2-pyridin-4-yl-thiazolidine-3-carboxylic acid benzyl ester] | 21.3 |
| O=C(NC1CC1)c1ccc(-c2csc(NC(=O)[C@@H]3CS[C@H](c4cccnc4)N3C(=O)OCc3ccccc3)n2)cc1 [Compound 7028, (2R,4R)-4-[4-(4-Cyclopropylcarbamoyl-phenyl)-thiazol-2-ylcarbamoyl]-2-pyridin-3-yl-thiazolidine-3-carboxylic acid benzyl ester] | 100 |
| O=C(NC1CC1)c1ccc(-c2csc(NC(=O)[C@@H]3CSC(c4cccc(CN5CCOCC5)c4)N3C(=O)OCc3ccccc3)n2)cc1 (mixture of isomers) [Compound 7080, 4-[4-(4-Cyclopropylcarbamoyl-phenyl)-thiazol-2-ylcarbamoyl]-2-(3-morpholin-4-ylmethyl-phenyl)-thiazolidine-3-carboxylic acid benzyl ester] | 100 |
| O=C(NC1CC1)c1ccc(-c2csc(NC(=O)[C@@H]3CC[C@H](c4ccccc4)N3C(=O)OCc3ccccc3)n2)cc1 [Compound 7052, (2S,5R)-2-[4-(4-Cyclopropylcarbamoyl-phenyl)-thiazol-2-ylcarbamoyl]-5-phenyl-pyrrolidine-1-carboxylic acid benzyl ester] | 98.9 |
| O=C(O)CCC1SC[C@@H](C(=O)Nc2nc(-c3ccc(C(=O)NC4CC4)cc3)cs2)N1C(=O)OCc1ccccc1 (mixture of isomers) [Compound 7065, 2-(2-Carboxy-ethyl)-4-[4-(4-cyclopropylcarbamoyl-phenyl)-thiazol-2-ylcarbamoyl]-thiazolidine-3-carboxylic acid benzyl ester] | 92 |
| O=C(NCCN1CCOCC1)c1ccc(-c2csc(NC(=O)[C@@H]3COC4(CCOCC4)N3C(=O)OCc3ccccc3)n2)cc1 [Compound 7141, 3-{4-[4-(2-Morpholin-4-yl-ethylcarbamoyl)-phenyl]-thiazol-2-ylcarbamoyl}-1,8-dioxa-4-aza-spiro[4.5]decane-4-carboxylic acid benzyl ester] | 100 |
| O=C(Cc1ccc(NC(=O)[C@@H]2CSC(c3ccncc3)N2C(=O)OCc2ccccc2)cc1)NCc1ccccc1 (stereo in doubt) [Compound 7105, 4-[4-(Benzylcarbamoyl-methyl)-phenylcarbamoyl]-2-pyridin-4-yl-thiazolidine-3-carboxylic acid benzyl ester] | 74.2 |
| O=C(NC1CC1)c1ccc(-c2csc(NC(=O)[C@@H]3CS[C@@H](c4cccnc4)N3C(=O)OCc3ccccc3)n2)cc1 [Compound 7009, (2S,4R)-4-[4-(4-Cyclopropylcarbamoyl-phenyl)-thiazol-2-ylcarbamoyl]-2-pyridin-3-yl-thiazolidine-3-carboxylic acid benzyl ester] | 99.9 |
| CC(C)(C)C(=O)N1C(C2CCOCC2)SC[C@H]1C(=O)Nc1nc(-c2ccc(C(=O)NC3CC3)cc2)cs1 (stereo partly shown) [Compound 7070, 3-(2,2-Dimethyl-propionyl)-2-(tetrahydro-pyran-4-yl)-thiazolidine-4-carboxylic acid [4-(4-cyclopropylcarbamoyl-phenyl)-thiazol-2-yl]-amide] | 96.1 |
| COC(=O)c1cccc(C2SC[C@@H](C(=O)Nc3nc(-c4ccc(C(=O)NC5CC5)cc4)cs3)N2C(=O)OCc2ccccc2)c1 (mixture of isomers) [Compound 7057, (R)-4-[4-(4-Cyclopropylcarbamoyl-phenyl)-thiazol-2-ylcarbamoyl]-2-(3-methoxycarbonyl-phenyl)-thiazolidine-3-carboxylic acid benzyl ester] | 100 |
| O=C(Cc1ccc(NC(=O)[C@@H]2CSC(c3ccncc3)N2C(=O)OCc2ccccc2)cc1)Nc1ccccc1 (stereo partly shown) [Compound 7126, 4-(4-Phenylcarbamoylmethyl-phenylcarbamoyl)-2-pyridin-4-yl-thiazolidine-3-carboxylic acid benzyl ester] | 93.8 |
| CC(=O)c1cccc(C2SC[C@@H](C(=O)Nc3nc(-c4ccc(C(=O)NC5CC5)cc4)cs3)N2C(=O)OCc2ccccc2)c1 (stereo partly shown) [Compound 7120, 2-(3-Acetyl-phenyl)-4-[4-(4-cyclopropylcarbamoyl-phenyl)-thiazol-2-ylcarbamoyl]-thiazolidine-3-carboxylic acid benzyl ester] | 100 |
